Results from patent publication US10143650B2, “Dispersion intended for encapsulating an active product and associated use” (CAPSUM, priority 2012, dated 2018).

Columns and labels:
[1] = partition coefficient of the active product between membrane phase and internal phase (octanol/water) and ratio R2 over membrane viscosity; type: physicochemical; conditions: concentration in octanol over concentration in water
Procedure: The ratio of the partition coefficient Cp of the active product 20 between the membrane 18 and the internal drop 16 is obtained by determining the partition coefficient of this active product 20 between a homologous phase to the intermediate phase forming the membrane 18 and a homologous phase to the internal phase forming the internal drop 16. The ratio Cp is calculated with the following equation: Cp=K=[active in the membrane phase]/[active in the internal phase].
In particular, when the internal drop 16 is aqueous, and when the membrane 18 is oily, the ratio Cp may be estimated by using log P=log K with: Cp=K=[active in octanol]/[active in water].
Further, the value of log P (=log (K)) may be simply evaluated by means of easily accessible molecular modeling software packages on the Internet such as for example on www.molispiration.com, www.vcclab.org/lab/alogps/start.html.
Experimental determination is possible with the following method: an accurate amount of the active is weighed and solubilized in one of the two water or octanol phases. Two equivalent volumes of both phases are then put into contact with stirring. The concentrations of the active product in each of both phases are then measured after thermodynamic equilibrium of the system. This concentration measurement may for example be carried out by directly measuring the absorbance, if the molecule absorbs light, or by liquid chromatography. This measurement is for example carried out at 22° C.
The coefficient K is then determined experimentally by the ratio of the concentration of the active in octanol over that in water.

[2] = leakage of encapsulated active product into the continuous phase (optical absorbance versus time); type: physicochemical
Source text: FIG. 4 is a graph illustrating the absorbance in the continuous phase in a dispersion according to the invention, wherein an active absorbent product was encapsulated in the dispersed phase;
FIG. 5 is a view similar to FIG. 4 for a dispersion according to the invention containing another absorbent active product; and
FIGS. 4 and 5 respectively illustrate the ratio of optical absorbance in the continuous phase 14 versus time for respectively the dispersion of the first example containing dextran, and for the dispersion of the second example containing bovine serum albumin.

[3] = absorbance in continuous phase, after more than one week at 50° C., R1 0.38

| partition coefficient (K, Cp) of the active product [1] | leakage of active product from the dispersed bodies ([2]; R2 equal to 3.05, time and temperature not stated) | Compound | leakage of active product from the dispersed bodies [2, 3] |
| --- | --- | --- | --- |
| less than 10^−2 |  | dextran | no leakage |
| 70.8 | leakage is observed | CCN(CC)c1ccc2c(-c3ccccc3C(=O)O)c3ccc(=[N+](CC)CC)cc-3oc2c1.[Cl-] [Rhodamine B] |  |

| Compound | partition coefficient (K, Cp) of the active product [1] | leakage of active product from the dispersed bodies ([2]; R2 equal to 3.05, time and temperature not stated) | leakage of active product from the dispersed bodies [2, 3] |
| --- | --- | --- | --- |
| bovine serum albumin | less than 10^−3 |  | no leakage |
